Experimental findings from ChEMBL document CHEMBL6103570, “An endoplasmic reticulum and lipid droplets dual-localized strategy to develop small molecular photosensitizers that induce ferroptosis during photodynamic therapy” (Eur J Med Chem, 2025) are described below.

Calls of active or inactive are those of the source. The rule behind the calls is not given here.

Series [1] in a line: Drug localization in mitochondria of mouse 4T1 cells assessed as increase in green fluorescence by measuring pearson correlation coefficient at 2 uM incubated for 12 hrs by confocal scanning microscopy analysis. It is filed as ADME. To be noted: 4t1, 12 h.
The subject of series [2] is 4T1. Briefly: Induction of intracellular ROS generation in mouse 4T1 cells assessed as increase in green fluorescence intensity at 5 to 60 nM incubated in dark for 24 hrs followed by compound removal and measured after 5 mins under 20 mW/cm2H2 white light irradiation by H2-DCFDA staining based fluorescence assay. It is filed as functional, cell-based. To be noted: dose 5-60 nM.

Series [3] is described as follows: Phototoxicity in mouse 4T1 cells assessed as cell viability preincubated for 24 hrs followed by white light irradiation at 20 mW/cm2 for 10 mins and measured after 24 hrs by MTT assay. It is filed as functional, cell-based. The following applies: 4T1, light or radiation study. Background: Tetrazolium dyes change colour on reduction, which living cells bring about.

A short description of series [4]: Darktoxicity in human MDA-MB-231 cells assessed as cell viability preincubated for 24 hrs followed by incubation under dark condition for 24 hrs by MTT assay. To be noted: time 48 hrs. It is filed as toxicity, cell-based.
The nature of series [5]: Darktoxicity in mouse 4T1 cells assessed as cell viability preincubated for 24 hrs followed by incubation under dark condition for 24 hrs by MTT assay. It is filed as toxicity, cell-based. The following applies: time 48 hrs.
Series [6] can be described thus: Darktoxicity in human MCF7 cells assessed as cell viability preincubated for 24 hrs followed by incubation under dark condition for 24 hrs by MTT assay. It is filed as toxicity, cell-based. The following applies: time 48 hrs.
The nature of series [7]: Potency index, ratio of IC50 for Chlorin e6 to IC50 for test compound for phototoxicity in human MDA-MB-231 cells assessed as cell viability preincubated for 24 hrs followed by white light irradiation at 20 mW/cm2 for 10 mins and measured after 24 hrs by MTT assay. The following applies: time 48 hrs. It is filed as functional.
In series [8] the test system is 4T1. Briefly: Induction of ferroptosis in mouse 4T1 cells assessed as cell viability at 20 nM preincubated for 24 hrs followed by white light irradiation at 20 mW/cm2 and measured after 24 hrs in presence of 3-MA by MTT assay. It is filed as functional, cell-based. To be noted: time 48.0 hrs.
Series [9] has as its system 4T1. Briefly: Antitumor activity against mouse 4T1 cells implanted in mouse model assessed as reduction in tumor weight at 3 mg/kg, IG measured every two days for 15 days under 80 mW/cm2 for 15 mins by digital caliper method. It is filed as functional, organism-based. The following applies: time 15.0 day.

For the compound `COC(=O)c1cc2c3ccccc3n(C)c2c(C2=C3C(C)=C(I)C(C)=[N+]3[B-](F)(F)n3c(C)c(I)c(C)c32)n1`, in [1], the Activity is 0.49. Moreover, the result with 4T1 [2] and in the series on 4T1 [9] was Active. In addition, the IC50 in series [3] is 0.019 µM. Further, the CC50 at 24 h in series [4], in series [5] and in [6] was above 100 µM each time. Further, in series [7], the “Ratio IC50” value worked out at 38. In the series with 4T1 [8], the result was inactive.

By IC50 is commonly meant the concentration that gives 50% inhibition. What is called CC50 is the concentration giving 50% cytotoxicity.
